Source: patent US12152270B2, “Neurotransmitter transport in probiotics” (Iowa State University Research Foundation, Inc., priority 2017, dated 2024)

Tests used:
[1] = test system: OCT-like uptake in L. salivarius biofilms; assay: ASP+ fluorophore uptake (OCT-like) in L. salivarius biofilms; type: cell-based, Lactobacillus salivarius; conditions: for inhibition of ASP+ uptake: early and late biofilms
Procedure: (§1) At the start of the assay, 0.2 ml of stationary phase overnight bacterial growth was inoculated into 9.8 ml of pre-warmed MRS, thoroughly mixed, and 0.2 ml aliquots added to individual wells of Corning flat clear-bottomed 96 well microplates (product #3904, Corning, Inc., Corning, NY, USA). Plates were then placed into a 37° C. humidified incubator. Following static incubation for either 6 or 24 hours, plates were removed from the incubator and the well supernatants were gently removed leaving the bacterial biofilm intact on the bottom surface of the individual clear plate wells. Subsequently, the PMAT-specific fluorophore IDT307 (Molecular Devices) or the OCT-specific fluorophore ASP^+ (Sigma-Aldrich) dissolved in IMDM and pre-warmed to 37° C. was gently added to appropriate wells (added along the well side so as not to disturb the biofilm). The plate was immediately placed into a BioTek Synergy H1 reader (Winooski, VT, USA) and measured using Gen5 software at the time intervals shown in the FIGS. 4-7. All assays were done at 37° C. unless otherwise noted and reads were performed as bottom fluorescence in relative fluorescence units (RFU). For IDT307, the chemical and masking dye were supplied pre-measured and the amount of IMDM used as a diluent was the same as indicated for the use of HBSS. […] Drug Metab Dispos. 2015; 43(11):1773-80, herein incorporated by reference, with the minor modification that the fluorophore/masking dye combination were prepared as follows: 100 μl of a 2 mg ASP^+ stock solution per ml of distilled water was first added to 9.9 ml of IMDM and mixed, followed by the addition of 10 μl of a 10 mM Trypan blue solution. The excitation/emission wavelengths used for IDT307 and ASP^+, respectively, were 440 nm/520 nm and 475 nm/609 nm.
(§2) Plates were prepared as above in Example 4 and following 6 hours (FIGS. 8A and B for PMAT and OCT respectively) or 24 hours (FIGS. 8C and D for PMAT and OCT respectively) of incubation the media was gently removed and replaced with 100 μl of pre-warmed IMDM media with or without different concentrations of fluoxetine. The concentrations of fluoxetine were 0.3125 mM, 0.625 mM, 1.25 mM, or 2.5 mM. The plate was then incubated at 37° C. for 30 minutes. Following incubation, 100 μl of pre-warmed fluorophore was added to the appropriate wells. The plate was then immediate placed into the fluorescence reader and measured at 37° C.
(§3) Two other antidepressant drugs that are chemically unrelated to fluoxetine, duloxetine and amitriptyline, were tested for their action on PMAT- and OCT-like functionalities in Lactobacilli to determine if they may also be used as inhibitors. Cells were grown in 96-well plates for 24 hours to allow for biofilm formation as above. […] IDT307 or ASP^+ was then used to measure the effects of each antidepressant drug on the cells ability to take up the fluorophore.

[2] = test system: PMAT-like uptake in L. salivarius biofilms; assay: IDT307 fluorophore uptake (PMAT-like) in L. salivarius biofilms; type: cell-based, Lactobacillus salivarius; conditions: for attenuation of IDT307 fluorophore uptake: 1 mg/ml, 24 hour biofilm; for uptake of IDT307-associated fluorescence: 100 μM; for inhibition of IDT307 uptake: early and late biofilms
Excerpt: For measurement of PMAT-like function, the IDT307 fluorophore-based Neurotransmitter Uptake Assay Kit (product #R8173, Molecular Devices, Sunnyvale, CA, USA) was used with modification. As it is intended for studies with mammalian cells, the kit recommends the use of phenol red-free Hank's Balanced Salt Solution (HBSS). Phenol red-free Iscove's Modified Dulbecco's Medium (IMDM; product #21056-023, Life Technologies, Carlsbad, CA, USA) was substituted for HBSS. […] IMDM was selected as it is a nutrient-rich, protein-free medium used in tissue culture that allows for robust growth of a wide variety of bacterial species in the absence of any protein additives common to most microbiology media.
as §1, §2, §3

[3] = test system: OCT-like uptake in L. reuteri; assay: ASP+ fluorophore uptake (OCT-like) in L. reuteri; type: cell-based, Lactobacillus reuteri; conditions: for attenuation of ASP+ fluorophore uptake: 2 mg/ml, 24 hour biofilm
Excerpt: The fluorophore ASP^+[4-(4-(diethylamino)styryl)-N-methylpyridinium iodide] was obtained from Sigma Chemical Company (Sigma #D4318) and used as described in Duan et al., Drug Metabolism and Disposition, volume 43, pages 1773-1780, 2015 (herein incorporated by reference) with a slight modification in the ratio of ASP^+ and Trypan blue used.
To verify if OCT-like uptake was responsible for the influx of ASP^+ in Lactobacilli, L. reuteri was pre-treated with D-22, an OCT inhibitor. In brief, Lactobacilli reuteri (obtained from American Type Culture Collection, #23272) were grown overnight at 37° C. in an aerobic environment in flat-bottomed 96-well plates in MRS medium. Following overnight incubation, the medium in each well was carefully removed in order to not overtly disturb the biofilm and a final concentration of 20 μM D-22 dissolved in IMDM or control medium was added. The plate was then incubated for 20 minutes at 37° C. in an aerobic environment. Next, ASP^+ fluorophore dissolved in IMDM was added and the plate was then placed into a BioTek Synergy H1 plate reader at 37° C. and read continuously for a total of 6 hours.
as §3

recombinant PMAT = target: T1, recombinant PMAT (Homo sapiens, UniProt Q7RTT9); conditions: 20 μM, HEK293 embryonic kidney cells; cited from earlier work
T1 construct: host or cells: HEK293 embryonic kidney cells (transfected, in the earlier report)
T1 sequence (Q7RTT9 1-530): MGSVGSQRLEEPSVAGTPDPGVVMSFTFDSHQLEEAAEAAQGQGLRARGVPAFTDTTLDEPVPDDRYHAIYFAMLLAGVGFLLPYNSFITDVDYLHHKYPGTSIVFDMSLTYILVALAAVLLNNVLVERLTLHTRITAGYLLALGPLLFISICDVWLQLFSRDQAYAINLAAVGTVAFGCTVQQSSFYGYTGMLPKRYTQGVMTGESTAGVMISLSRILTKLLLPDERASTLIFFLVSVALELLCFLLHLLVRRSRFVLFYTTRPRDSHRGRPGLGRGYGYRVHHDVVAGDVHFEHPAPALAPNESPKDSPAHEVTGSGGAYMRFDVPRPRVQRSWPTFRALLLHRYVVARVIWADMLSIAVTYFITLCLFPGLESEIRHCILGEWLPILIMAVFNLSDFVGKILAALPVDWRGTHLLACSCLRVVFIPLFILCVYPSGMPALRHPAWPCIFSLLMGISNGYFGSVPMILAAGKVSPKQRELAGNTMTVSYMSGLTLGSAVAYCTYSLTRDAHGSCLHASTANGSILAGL

recombinant OCTs = conditions: 20 μM, HEK293 embryonic kidney cells; cited from earlier work
[4] = test system: PMAT-like uptake in L. reuteri; conditions: 2 mg/ml, 24 hour biofilm
Procedure: as §3

[5] = test system: microbial communities of mice; assay: In vivo administration of fluoxetine, 16S rRNA sequencing of microbial communities; conditions: male mice, oral, daily for 28 days
Procedure: Fluoxetine was administered on a daily basis by the oral route to male mice for 28 days in order to determine if any modulation in microbial communities could be obtained.
To classify the microbial communities, the genomes of isolated bacteria were sequenced and compared. Genomic DNA isolation was obtained using the PowerSoil DNA Isolation Kit (MoBio, Carlsbad, CA) on cecal and fecal samples. Assays were performed in accordance with the manufacturer's protocol with the following modifications: samples were incubated at 70° C. for 10 minutes immediately after addition of the C1 solution and the initial vortex step was extended to 20 minutes to thoroughly homogenize the samples. The purified bacterial genomic DNA extracts were quantified using a Qubit 2.0 Fluorometer (Life Technologies, Carlsbad, CA), and stored at −20° C. in 10 mM Tris buffer. For Illumina sequencing, bacterial genomic DNA was amplified using the Earth Microbiome Project barcoded primer set, adapted for the Illumina HiSeq2000 and MiSeq by adding nine extra bases in the adapter region of the forward amplification primer that support paired-end sequencing. The V4 region of the 16S rRNA gene (Illumina, 515F-806R) was amplified with region-specific primers that included the Illumina flowcell adapter sequences. The reverse amplification primer also contained a twelve base barcode sequence that supported pooling of up to 2,167 different samples in each lane. Each 25 μl PCR reaction contained 12 µl of MoBio PCR Water (Certified DNA-Free), 10 μl of 5 Prime HotMasterMix (1×), 1 μl of Forward Primer ([…], […]), 1 μl Golay Barcode Tagged Reverse Primer (5 μM concentration, […]), and […]. The conditions for PCR were as follows: 94° C. for 3 minutes to denature the DNA, with 35 cycles at 94° C. for 45 s, 50° C. for 60 s, and 72° C. for 90 s; with a final extension of 10 min at 72° C. to ensure complete amplification. The PCR amplicons were quantified using PicoGreen (Invitrogen) and a plate reader. Once quantified, different volumes of each of the products were pooled into a single tube so that each amplicon was represented equally. This pool was then cleaned up using UltraClean® PCR Clean-Up Kit (MoBIO), and quantified using the Qubit (Invitrogen). After quantification, the molarity of the pool was determined and diluted down to 2 nM, denatured, and then diluted to a final concentration of […] with a 10% PhiX spike for sequencing on the Illumina MiSeq.
In total, 60 fecal samples, representing 20 samples for each time point (day 0, 15, and 28) with 10 samples for the control and treatment groups, respectively, were used for 16S rRNA gene amplicon sequencing using Illumina MiSeq with 151 bp paired-end sequencing technology. 16S rRNA gene PCR and library preparation and sequencing were completed at the Environmental Sample Preparation and Sequencing Facility at Argonne National Laboratory. Sequence analysis was performed using mothur version 1.39.3 following the mothur MiSeq SOP available at the mothur website. Briefly, contigs were joined with “make.contigs”, reads longer than 250 bp, harboring any ambiguous bases or with more than 8 consecutive homopolymers were excluded using “screen.seqs”. Reads were aligned to the SILVA NR128 reference database. Chimeric sequences were removed with “chimera.uchime” and the remaining reads were clustered into operational taxonomic units (OTUs) using a 97% similarity threshold and taxonomy was assigned to OTUs using the SILVA NR 128 reference database. […] For determination of differences between groups on community level, analysis of molecular variance (AMOVA) and analysis of similarity (ANOSIM) implemented in mothur were used. Heatmaps were generated with JColorGrid. For better taxonomic classification, the OTUs were searched against the 16S rRNA gene sequences of the Mouse Intestinal Bacterial Collection isolates (miBC) using BlastN.

[6] = biofilms established over 24 hours
[7] = concentrations higher than 0.625 mM

## CCN(CC)c1ccc(C=Cc2cc[n+](C)cc2)cc1.[I-] [ASP^+, 4-(4-(diethylamino)styryl)-N-methylpyridinium iodide]
[1]; 6 hour biofilms, 37° C.
  time of intracellular fluorescence decay after maximum: 2 to 3 h
  time to maximum fluorescence intensity: < 60 min
[1]; [6]
  residence time of probe in biofilm: > 6 h

## CN(C)CCC=C1c2ccccc2CCc2ccccc21 [Amitriptyline, amitriptyline]
[2]
  attenuation of IDT307 fluorophore uptake: much stronger inhibitory effect
[3]
  attenuation of ASP+ fluorophore uptake: much stronger inhibitory effect

## CN(C)c1ccc(-c2cc[n+](C)cc2)cc1.[I-] [IDT307, 4-[p-(Dimethylamino)phenyl]-1-methylpyridinium iodide]
[2]; 6 hour biofilms, 37° C.
  time of intracellular fluorescence decay after maximum: 2 to 3 h
  time to maximum fluorescence intensity: < 60 min
[2]; [6]
  residence time of probe in biofilm: > 6 h

## NC[C@H](O)c1ccc(O)c(O)c1 [NE, norepinephrine]
[2]; 6 hour biofilms
  uptake of IDT307-associated fluorescence: markedly inhibited

## CCN1/C(=C/c2ccc3ccccc3[n+]2CC)C=Cc2ccccc21.[I-] [decynium-22]
[2]; 20 μM, early (6 hour) biofilms
  peak increase in IDT307 uptake: blunted
[1]; 20 μM, early (6 hour) biofilms
  peak increase in ASP+ uptake: blunted
[3]; 20 μM, 20 min pre-incubation, overnight biofilm, read 6 hours, all time points
  ability of the ASP+ fluorophore to enter into the cells (fluorescence): reduced the ability of the ASP^+ fluorophore to enter into the cells
Recombinant PMAT
  serotonin uptake through recombinant PMAT: block serotonin uptake
Recombinant OCTs
  serotonin uptake through recombinant OCTs: block serotonin uptake

## CNCC[C@H](Oc1cccc2ccccc12)c1cccs1 [duloxetine]
[2]
  attenuation of IDT307 fluorophore uptake: some attenuation
[1]; 1 mg/ml, 24 hour biofilm
  attenuation of ASP+ fluorophore uptake: some attenuation
[4]
  attenuation of IDT307 fluorophore uptake: larger attenuation of fluorophore uptake
[3]
  attenuation of ASP+ fluorophore uptake: larger attenuation of fluorophore uptake

## CNCCC(Oc1ccc(C(F)(F)F)cc1)c1ccccc1 (stereo not drawn) [fluoxetine]
[2]; concentrations below 0.625 mM
  inhibition of IDT307 uptake: concentration-dependent inhibition
[2]; [7]
  inhibition of IDT307 uptake: total inhibition
[1]; concentrations below 0.625 mM
  inhibition of ASP+ uptake: concentration-dependent inhibition
[1]; [7]
  inhibition of ASP+ uptake: total inhibition
[5]
  overall effect on microbial communities: shift of microbial communities towards dysbiosis
[5]; fecal samples
  decrease of Lactobacillus OTU17 abundance under treatment: 7.4 fold
  number of OTUs different between control and fluoxetine group: 121 OTUs
  species richness and diversity estimators vs control group: No statistical significant differences
[5]; phylum level
  abundance of Firmicutes relative to Bacteroidetes: trended (p=0.08) to be more abundant than Bacteroidetes
[5]; p=0.02 and p=0.05
  whole community level comparison with control (AMOVA and ANOSIM): statistically significant differences

## NCCc1c[nH]c2ccc(O)cc12 [serotonin]
[2]; 6 hour biofilms
  uptake of IDT307-associated fluorescence: markedly inhibited

## O=NO [sodium nitrite]
[2]; 6 hour biofilms
  uptake of IDT307-associated fluorescence: inhibited the rapid rise in IDT307-associated fluorescence
